Where “and” joins values, the source holds several entries; their conditions need not be identical. Equal entries are not always repeated. Toxic doses and inconclusive results are not listed. Rule as the data show it: active = T/C of 150% or more; inactive = T/C below 125%.
Tested on: L1210 leukemia ip in BDF1 mice, survival T/C
Assay: NCI In Vivo Anticancer Drug Screen. Data for tumor model L1210 Leukemia (intraperitoneal) in B6D2F1 (BDF1) mice
Conditions: endpoint: mean survival time, higher = longer survival
Procedure, shortened: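 Mice bearing the transplanted tumor received compound or vehicle. Survival of the treated group was divided by that of the vehicle-treated control group to give the ratio.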

[1] = dose: 100.0 mg/kg/injection, schedule: Q01DX009 (ip), vehicle: Klucel (hydroxypropylcellulose) (HPC)
[2] = dose: 100.0 mg/kg/injection, schedule: Q04DX003 (ip), vehicle: Klucel (hydroxypropylcellulose) (HPC)
[3] = dose: 200.0 mg/kg/injection, schedule: Q01DX009 (ip), vehicle: Klucel (hydroxypropylcellulose) (HPC)
[4] = dose: 200.0 mg/kg/injection, schedule: Q04DX003 (ip), vehicle: Klucel (hydroxypropylcellulose) (HPC)
[5] = dose: 400.0 mg/kg/injection, schedule: Q01DX009 (ip), vehicle: Klucel (hydroxypropylcellulose) (HPC)
[6] = dose: 400.0 mg/kg/injection, schedule: Q04DX003 (ip), vehicle: Klucel (hydroxypropylcellulose) (HPC)
[7] = dose: 100.0 mg/kg/injection, schedule: Q04DX002 (ip), vehicle: saline
[8] = dose: 200.0 mg/kg/injection, schedule: Q04DX002 (ip), vehicle: saline
[9] = dose: 400.0 mg/kg/injection, schedule: Q04DX002 (ip), vehicle: saline
[10] = dose: 6.25 mg/kg/injection, schedule: Q04DX002 (ip), vehicle: saline with Tween-80
[11] = dose: 12.5 mg/kg/injection, schedule: Q04DX002 (ip), vehicle: saline with Tween-80
[12] = dose: 25.0 mg/kg/injection, schedule: Q04DX002 (ip), vehicle: saline with Tween-80
[13] = dose: 25.0 mg/kg/injection, schedule: Q01DX009 (ip), vehicle: saline with Tween-80
[14] = dose: 75.0 mg/kg/injection, schedule: Q01DX001 (ip), vehicle: saline
[15] = dose: 300.0 mg/kg/injection, schedule: Q01DX001 (ip), vehicle: saline
[16] = dose: 100.0 mg/kg/injection, schedule: Q01DX009 (ip), vehicle: saline with Tween-80
[17] = dose: 200.0 mg/kg/injection, schedule: Q01DX009 (ip), vehicle: saline with Tween-80
[18] = dose: 400.0 mg/kg/injection, schedule: Q01DX009 (ip), vehicle: saline with Tween-80
[19] = dose: 50.0 mg/kg/injection, schedule: Q01DX009 (ip), vehicle: Klucel (hydroxypropylcellulose) (HPC)
[20] = dose: 100.0 mg/kg/injection, schedule: Q01DX001 (ip), vehicle: carboxymethylcellulose (CMC)
[21] = dose: 200.0 mg/kg/injection, schedule: Q01DX001 (ip), vehicle: carboxymethylcellulose (CMC)
[22] = dose: 400.0 mg/kg/injection, schedule: Q01DX001 (ip), vehicle: carboxymethylcellulose (CMC)
[23] = dose: 100.0 mg/kg/injection, schedule: Q04DX003 (ip), vehicle: saline with Tween-80

Measured: T/C

c1ccc2c(c1)NC1(CCCCC1)S2
inactive: [1] 99 % of control | [2] 104 % of control | [3] 99 % of control | [4] 91 % of control | [5] 91 % of control | [6] 93 % of control

CCOC(=O)NCC(CCCN1CCOCC1)(c1cccc2ccccc12)C(C)CC (stereo unspecified)
inactive: [7] 102 % of control | [8] 106 % of control | [9] 97 % of control

O=C1C=C(c2ccccc2)C(O)(c2ccccc2)/C1=C/c1ccccc1 (stereo unspecified)
inactive: [10] 100 % of control | [11] 92 % of control | [12] 92 % of control

CC(=O)Nc1cc(C(C)=O)ccc1O
inactive: [2] 106 % of control | [4] 98 % of control | [6] 103 % of control

COc1c(NC(=O)Nc2ccccc2C)cccc1[N+](=O)[O-]
inactive: dose: 6.25 mg/kg/injection, schedule: Q01DX009 (ip), vehicle: saline with Tween-80 100 % of control | [10] 96 % of control | dose: 12.5 mg/kg/injection, schedule: Q01DX009 (ip), vehicle: saline with Tween-80 92 % of control | [11] 93 % of control | [13] 88 % of control | [12] 100 % of control

CC1=C(C)C2(Cl)C(Cl)=C(Cl)C1(Cl)C2(Cl)Cl
inactive: dose: 50.0 mg/kg/injection, schedule: Q04DX003 (ip), vehicle: Klucel (hydroxypropylcellulose) (HPC) 96 % of control | [2] 91 % of control | [4] 92 % of control | [6] 96 % of control

COc1ccc(NCc2ccccc2O)cc1
inactive: dose: 100.0 mg/kg/injection, schedule: Q01DX001 (ip), vehicle: other 95 % of control | dose: 200.0 mg/kg/injection, schedule: Q01DX001 (ip), vehicle: other 87 % of control | dose: 400.0 mg/kg/injection, schedule: Q01DX001 (ip), vehicle: other 93 % of control

O=C(O)CCCCCNCc1cc(=O)[nH]c(=O)[nH]1
inactive: dose: 100.0 mg/kg/injection, schedule: Q04DX003 (ip), vehicle: saline 97 % of control | dose: 200.0 mg/kg/injection, schedule: Q04DX003 (ip), vehicle: saline 101 % of control

Nc1ccc(S(=O)(=O)O)c2cccc(O)c12
inactive: dose: 100.0 mg/kg/injection, schedule: Q04DX002 (ip), vehicle: carboxymethylcellulose (CMC) 103 % of control | [2] 101 % of control | dose: 200.0 mg/kg/injection, schedule: Q04DX002 (ip), vehicle: carboxymethylcellulose (CMC) 107 % of control | [4] 91 % of control | [6] 101 % of control

CC(C)N=C(c1ccccc1)N(O)c1ccccc1
inactive: [14] 93 % of control | dose: 150.0 mg/kg/injection, schedule: Q01DX001 (ip), vehicle: saline 101 % of control | [15] 91 % of control

CCOC(=O)CNC(=O)NCCc1ccccc1
inactive: [16] 112 % of control | [17] 96 % of control | [18] 87 % of control

O=C(O)C1CCC2CCCCC2[N-]1.O=C(O)C1CCC2CCCCC2[N-]1.[Zn+2] (stereo unspecified)
inactive: dose: 25.0 mg/kg/injection, schedule: Q01DX009 (ip), vehicle: Klucel (hydroxypropylcellulose) (HPC) 92 % of control | [19] 87 % of control | [1] 86 % of control | [2] 94 % of control | [4] 89 % of control | [6] 89 % of control

CN(C)c1ccc(/C=C/c2cc[n+](C)cc2)cc1
inactive: dose: 8.0 mg/kg/injection, schedule: Q04DX003 (ip), vehicle: saline with Tween-80 100 % of control | dose: 16.0 mg/kg/injection, schedule: Q04DX003 (ip), vehicle: saline with Tween-80 95 % of control

O=C(C[n+]1ccccc1Br)c1cccc2ccccc12
inactive: dose: 9.38 mg/kg/injection, schedule: Q01DX001 (ip), vehicle: other 103 % of control

NS(=O)(=O)c1ccc(NC(=S)NC(=O)/C=C/c2ccccc2)cc1
inactive: dose: 100.0 mg/kg/injection, schedule: Q01DX009 (sc), vehicle: olive oil, sesame oil, peanut oil 107 % of control | dose: 100.0 mg/kg/injection, schedule: Q04DX003 (sc), vehicle: olive oil, sesame oil, peanut oil 107 % of control | dose: 200.0 mg/kg/injection, schedule: Q01DX009 (sc), vehicle: olive oil, sesame oil, peanut oil 113 % of control | dose: 200.0 mg/kg/injection, schedule: Q04DX003 (sc), vehicle: olive oil, sesame oil, peanut oil 97 % of control | dose: 400.0 mg/kg/injection, schedule: Q01DX009 (sc), vehicle: olive oil, sesame oil, peanut oil 104 % of control | dose: 400.0 mg/kg/injection, schedule: Q04DX003 (sc), vehicle: olive oil, sesame oil, peanut oil 103 % of control

O=C(/C(=C\c1ccc(Cl)c(Cl)c1)c1ccccc1)c1ccc(O)cc1
inactive: [20] 90 % of control | [21] 101 % of control | [22] 95 % of control

Cn1ccc2cc(Br)ccc21
inactive: [23] 102 % of control | dose: 200.0 mg/kg/injection, schedule: Q04DX003 (ip), vehicle: saline with Tween-80 101 % of control | dose: 400.0 mg/kg/injection, schedule: Q04DX003 (ip), vehicle: saline with Tween-80 101 % of control

CN(C)c1ccc(/C=C/C(=O)Cc2ccccc2)cc1
inactive: dose: 1.56 mg/kg/injection, schedule: Q04DX002 (ip), vehicle: saline with Tween-80 109 % of control | dose: 3.13 mg/kg/injection, schedule: Q04DX002 (ip), vehicle: saline with Tween-80 103 % of control | [10] 98 % of control | [11] 95 % of control and 98 % of control | dose: 50.0 mg/kg/injection, schedule: Q04DX002 (ip), vehicle: saline with Tween-80 104 % of control | dose: 100.0 mg/kg/injection, schedule: Q04DX002 (ip), vehicle: saline with Tween-80 88 % of control

CCOC(=O)C(=N\Nc1ccc(Cl)cc1Cl)/C(C)=N\NC(N)=S
inactive: [14] 95 % of control | [15] 104 % of control

CC(=O)CC(=O)Nc1cccc(Cl)c1C
inactive: [1] 89 % of control | [3] 89 % of control

CCC(c1ccccc1)c1nc2ccccc2c2ccccc12 (stereo unspecified)
inactive: [19] 97 % of control | [1] 97 % of control | [3] 94 % of control

COc1ccccc1C(=O)N/N=C/c1ccc(O)cc1O
inactive: [1] 102 % of control | [3] 96 % of control | [5] 100 % of control

COc1cc(C2NC(=S)NC2=S)ccc1O (stereo unspecified)
inactive: [13] 104 % of control | dose: 25.0 mg/kg/injection, schedule: Q04DX003 (ip), vehicle: saline with Tween-80 94 % of control | dose: 50.0 mg/kg/injection, schedule: Q01DX009 (ip), vehicle: saline with Tween-80 96 % of control | dose: 50.0 mg/kg/injection, schedule: Q04DX003 (ip), vehicle: saline with Tween-80 92 % of control | [23] 94 % of control and 98 % of control

CCC(=O)c1ccccc1N
inactive: [16] 97 % of control | [17] 105 % of control | [18] 92 % of control

O=C(Sc1ccccc1)c1ccccc1
inactive: dose: 50.0 mg/kg/injection, schedule: Q01DX001 (ip), vehicle: carboxymethylcellulose (CMC) 105 % of control | [20] 105 % of control | [21] 108 % of control | [22] 100 % of control

NC(=O)NC(=O)CC1NC(=O)NC1=O (stereo unspecified)
inactive: [7] 103 % of control | [8] 106 % of control | [9] 87 % of control

C[N+](C)(C)C1/C=C(/Cl)CC/C=C(/Cl)C1 (stereo unspecified)
inactive: dose: 9.38 mg/kg/injection, schedule: Q01DX001 (ip), vehicle: saline 96 % of control | dose: 18.75 mg/kg/injection, schedule: Q01DX001 (ip), vehicle: saline 89 % of control | dose: 37.5 mg/kg/injection, schedule: Q01DX001 (ip), vehicle: saline 97 % of control

From PubChem BioAssay AID248 (DTP/NCI, 2004)
